Experiments:
[1] = tested on: greenhouse red spider mite (Tetranychus urticae); test: Tetranychus urticae spray test, OP-resistant (TETRUR); assay type: in vivo; settings: bean leaf discs, after 6 days
Method in brief: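 Percent kill, scored 6 days post-spray (0% = none dead, 100% = all dead), on Phaseolus vulgaris leaf discs infested with every life stage of the OP-resistant spider mite. Compound dissolved in acetone plus DMF, diluted to test concentration with emulsifier-containing water (1000 ppm).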

[2] = tested on: adult cat fleas (Ctenocephalides felis); test: Ctenocephalides felis in vitro contact test with adult cat fleas (T1); settings: after 48 h
Method in brief: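 Adult cat fleas (Ctenocephalides felis), 5-10 per tube, were exposed to the inner surface of 25 ml test tubes coated with compound in acetone. Tubes were incubated lying flat under ambient conditions. Efficacy was then read by standing tubes upright and knocking the fleas to the floor. Fleas that stayed motionless or moved uncoordinatedly counted as dead or moribund, where 100% means all fleas dead or moribund and 0% means none harmed.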

[3] = tested on: engorged adult female cattle ticks (Boophilus microplus); test: Boophilus microplus injection test (BOOPMI Inj); assay type: in vivo; settings: application rate 20 μg/animal; injection into abdomen; assessed after 7 days
Method in brief: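 Efficacy is read at 7 days as fertile egg laying (100% = no fertile eggs laid; 0% = all eggs fertile), with eggs of unclear fertility stored until larvae hatch at about 42 days. Five engorged adult females per dose each receive an abdominal injection of 1 μl compound dissolved in DMSO.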

[4] = tested on: L1 larvae of the Australian sheep blowfly (Lucilia cuprina); test: Lucilia cuprina test (LUCICU); assay type: in vivo; settings: application rate 100 ppm; after 2 days
Method in brief: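 Percent mortality read at 2 days; 100% = all larvae killed, 0% = none. Test compound, predissolved in DMSO and water-diluted to the wanted level, was mixed into minced horsemeat holding roughly 20 first-instar larvae.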

[5] = tested on: adult castor bean ticks (Ixodes ricinus); test: Ixodes ricinus in vitro contact test with adult castor bean ticks (T3); settings: after 48 h
Method: T3. Ixodes ricinus-in vitro Contact Tests with Adult Castor Bean Ticks
For the coating of the test tubes, initially 9 mg of active compound are dissolved in 1 ml of acetone p.a. and then diluted with acetone p.a. to the desired concentration. By turning and rocking on an orbital shaker (2 h of rocking rotation at 30 rpm), 250 μl of the solution are distributed homogeneously on the internal walls and the floor of a 25 ml test tube. At 900 ppm active compound solution and 44.7 cm^2 internal surface, an area dose of 5 μg/cm^2 is achieved for homogeneous distribution.
After evaporation of the solvent, the tubes are populated with 5-10 adult castor bean ticks (Ixodes ricinus), sealed with a perforated plastic lid and incubated in a horizontal position in the dark at 22° C. and 90% humidity in a climate-controlled cabinet. After 48 h, the efficacy is determined. To this end, the ticks are knocked to the floor of the tube and incubated on a hotplate at 45-50° C. for at most 5 min. Ticks which remain motionless on the floor or move in an uncoordinated manner such that they are not able to deliberately avoid the heat by climbing upwards are considered to be dead or moribund.
An efficacy of 100% means that all ticks were dead or moribund. 0% efficacy means that none of the ticks had been damaged.

[6] = tested on: adult dog ticks (Rhipicephalus sanguineus); test: Rhipicephalus sanguineus in vitro contact test with adult brown dog ticks (T2); settings: after 48 h
Method in brief: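 Acetone solutions coated onto test tube walls and floor, giving 5 μg/cm^2 at 900 ppm. Five to ten adult ticks held per tube in the dark at room temperature for 48 h, then heated at 45-50° C for up to 5 min; efficacy is the percentage of dead or moribund ticks unable to climb away.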

[7] = tested on: Tick nymphs (Amblyomma hebraeum); test: Amblyomma hebraeum test (AMBYHE), tick nymphs immersed; assay type: in vivo; settings: application rate 100 ppm; immersed one minute; after 42 days
Method: A. Amblyomma hebaraeum Test (AMBYHE)
Solvent: dimethyl sulphoxide
To produce a suitable preparation of active compound, 10 mg of active compound are mixed with 0.5 ml of dimethyl sulfoxide, and the concentrate is diluted with water to the desired concentration.
Tick nymphs (Amblyomma hebraeum) are placed into perforated plastic beakers and immersed in the desired concentration for one minute. The ticks are transferred on filter paper into a Petri dish and stored in a climate-controlled cabinet.
After 42 days, the kill in % is determined. 100% means that all of the ticks have been killed; 0% means that none of the ticks have been killed.

SMILES	efficacy in % ([1]; application rate 100 g/ha)	efficacy (dead or moribund fleas) ([2]; application rate 1 μg/cm^2)	efficacy (dead or moribund fleas) ([2]; application rate 5 μg/cm^2)	efficacy (laying of fertile eggs) [3]	efficacy (kill in %) [4]	efficacy (dead or moribund ticks) ([5]; application rate 1 μg/cm^2)	efficacy (dead or moribund ticks) ([5]; application rate 5 μg/cm^2)	efficacy (dead or moribund ticks) ([6]; application rate 1 μg/cm^2)	efficacy (dead or moribund ticks) ([6]; application rate 5 μg/cm^2)	efficacy (kill in %) [7]	efficacy in % ([1]; application rate 500 g/ha)
Cn1nc(C(F)(F)C(F)(F)F)c(C(F)(F)F)c1-n1cc(-c2ccc(Cl)c(C(=O)NC3CC3F)c2)cn1 (stereo not drawn) [Ic-81]	100%	100%	100%	100%	100%	100%	100%	100%	100%		
Cn1nc(C(F)(F)C(F)(F)F)c(C(F)(F)F)c1-n1cc(-c2ccc(Br)c(C(=O)NC3(C#N)CC3)c2)cn1 [Ic-34]	100%	100%	100%	100%	100%			80%	100%	100%	
Cn1nc(C(F)(F)C(F)(F)F)c(C(F)(F)F)c1-n1ccc(-c2ccc(Cl)c(C(=O)NC3CC3)c2)c1 [Ia-2]	90%	100%	100%	100%	100%	100%	100%	100%	100%	100%	
Cn1nc(C(F)(F)C(F)(F)F)c(C(F)(F)F)c1-n1cc(-c2ccc(Cl)c(C(=O)NC3CC3)c2)cn1 [Ic-1, 2-Chloro-N-cyclopropyl-5-[2′-methyl-5′-(pentafluoroethyl)-4′-(trifluoromethyl)-2′H-1,3′-bipyrazol-4-yl]benzamide]		100%	100%	100%	100%	100%	100%	100%	100%	100%	100%
Cc1ncc(-c2cnn(-c3c(C(F)(F)F)c(C(F)(F)C(F)(F)F)nn3C)c2)cc1C(=O)NC1CC1 [Ic-84]		100%	100%	100%	100%	100%	100%	100%	100%	100%	100%
CCn1nc(C(F)(F)C(F)(F)F)c(C(F)(F)F)c1-n1cc(-c2ccc(Cl)c(C(=O)NC3CC3)c2)cn1 [Ic-16]		100%	100%	100%	100%	100%	100%	100%	100%	100%	
Cn1nc(C(F)(F)C(F)(F)F)c(C(F)(F)F)c1-n1cc(-c2cc(F)c(Cl)c(C(=O)NC3(C#N)CC3)c2)cn1 [Ic-27]		100%	100%	100%	100%			100%	100%	100%	100%
Cn1nc(C(F)(F)C(F)(F)F)c(C(F)(F)F)c1-n1cc(-c2ccc(F)c(C(=O)NC3CC3)c2)cn1 [Ic-37]	100%	100%	100%	100%	100%	100%	100%	100%	100%	100%	
CN(C(=O)c1cc(-c2cnn(-c3c(C(F)(F)F)c(C(F)(F)C(F)(F)F)nn3C)c2)ccc1Cl)C1(C#N)CC1 [Ic-96]	100%	100%	100%	100%	100%			100%	100%		
Cn1nc(C(F)(F)C(F)(F)F)c(C(F)(F)F)c1-n1cc(-c2ccc(Cl)c(C(=O)NCC(F)F)c2)cn1 [Ic-78]	100%	100%	100%	100%	100%			100%	100%		
Cn1nc(C(F)(F)C(F)(F)F)c(C(F)(F)F)c1-n1cc(-c2ccc([N+](=O)[O-])c(C(=O)NC3CC3)c2)cn1 [Ic-66]	100%	100%	100%	100%	100%			100%	100%		
Cn1nc(C(F)(F)C(F)(F)F)c(C(F)(F)F)c1-n1cc(-c2cc(F)c(Cl)c(C(=O)NC3CC3)c2)cn1 [Ic-24]		100%	100%	100%	100%			100%	100%	100%	100%
Cn1nc(C(F)(F)C(F)(F)F)c(C(F)(F)F)c1-n1cc(-c2ccc(F)c(C(=O)NC3(C#N)CC3)c2)cn1 [Ic-36]	100%	100%	100%	100%	100%			100%	100%	100%	

Source: patent US9487489B2, “Halogen-substituted pyrazole derivatives as pest-control agents” (BAYER CROPSCIENCE AKTIENGESELLSCHAFT, priority 2013, dated 2016)
